{"source": "patent US10774071B2", "about": "“PD-1/PD-L1 inhibitors” (Gilead Sciences, Inc., priority 2018, dated 2020)", "key": {"[1]": {"molecular_target": "PD-L1 (Homo sapiens (Human), UniProt Q9NZQ7)", "test": "PD-L1/PD-L1 dimerization biochemical protein-protein interaction assay (ALPHA)", "type": "binding", "conditions": "0.5 nM His tagged PD-L1 and 0.5 nM FLAG tagged PD-L1, Table 4B, read-out: AC50 PDL1 Dimer 1 nM"}, "[2]": {"molecular_target": "PD-1/PD-L1 (Homo sapiens (Human), UniProt Q9NZQ7)", "test": "PD-1/PD-L1 biochemical protein-protein interaction assay (ALPHA)", "type": "binding", "conditions": "0.3 nM His tagged PD-L1, 2.5 nM biotinylated Fc-PD-1, Table 3B, read-out: IC50 PD-L1-PD1"}}, "data": [{"compound": "COc1nc(-c2cccc(-c3cccc4c3CC[C@@H]4Oc3nc(OC)c(CN4CCC[C@@]4(C)C(=O)O)cc3C)c2Cl)ccc1CNC[C@@H]1CCC(=O)N1", "note": "[B-237]", "values": [{"measurement": "AC50", "setting": "[1]", "result": 20.7, "unit": "nM"}, {"measurement": "IC50", "setting": "[2]", "result": 0.064, "unit": "nM"}]}, {"compound": "COc1nc(-c2cccc(-c3cccc4c3CC[C@@H]4Oc3nc(OC)c(CN4CCC[C@]4(C)C(=O)O)cc3C)c2Cl)ccc1CNC[C@@H]1CCC(=O)N1", "note": "[B-238]", "values": [{"measurement": "AC50", "setting": "[1]", "result": 34.9, "unit": "nM"}, {"measurement": "IC50", "setting": "[2]", "result": 0.064, "unit": "nM"}]}, {"compound": "COc1nc(-c2cccc(-c3cccc4c3CC[C@@H]4Oc3nc(OC)c(CNCC(=O)O)cc3C)c2Cl)ccc1CNC[C@@H]1CCC(=O)N1", "note": "[B-239]", "values": [{"measurement": "AC50", "setting": "[1]", "result": 21.3, "unit": "nM"}, {"measurement": "IC50", "setting": "[2]", "result": 0.064, "unit": "nM"}]}, {"compound": "COc1nc(-c2cccc(-c3cccc4c3CC[C@@H]4Oc3nc(OC)c(CNC(C)(CO)C(=O)O)cc3C)c2Cl)ccc1CNC[C@@H]1CCC(=O)N1", "note": "(stereo partly shown) [B-240]", "values": [{"measurement": "AC50", "setting": "[1]", "result": 12.1, "unit": "nM"}, {"measurement": "IC50", "setting": "[2]", "result": 0.064, "unit": "nM"}]}, {"compound": "COc1nc(-c2cccc(-c3cccc4c3CC[C@@H]4Oc3nc(OC)c(CN[C@@H](C)C(=O)O)cc3C)c2Cl)ccc1CNC[C@@H]1CCC(=O)N1", "note": "[B-241]", "values": [{"measurement": "AC50", "setting": "[1]", "result": 7.58, "unit": "nM"}, {"measurement": "IC50", "setting": "[2]", "result": 0.064, "unit": "nM"}]}, {"compound": "COc1nc(-c2cccc(-c3cccc4c3CC[C@@H]4Oc3nc(OC)c(CN[C@H](C)C(=O)O)cc3C)c2Cl)ccc1CNC[C@@H]1CCC(=O)N1", "note": "[B-242]", "values": [{"measurement": "AC50", "setting": "[1]", "result": 18.9, "unit": "nM"}, {"measurement": "IC50", "setting": "[2]", "result": 0.064, "unit": "nM"}]}, {"compound": "COc1nc(O[C@H]2CCc3c(-c4cccc(-c5cc(C)c(CNC[C@@H]6CCC(=O)N6)c(OC)n5)c4Cl)cccc32)c(C)cc1CNC(C)(C)C(=O)O", "note": "[B-243]", "values": [{"measurement": "AC50", "setting": "[1]", "result": 15.8, "unit": "nM"}, {"measurement": "IC50", "setting": "[2]", "result": 0.064, "unit": "nM"}]}, {"compound": "COc1nc(O[C@H]2CCc3c(-c4cccc(-c5cc(C)c(CNC[C@@H]6CCC(=O)N6)c(OC)n5)c4Cl)cccc32)c(C)cc1CNC1(C(=O)O)CC1", "note": "[B-244]", "values": [{"measurement": "AC50", "setting": "[1]", "result": 18, "unit": "nM"}, {"measurement": "IC50", "setting": "[2]", "result": 0.064, "unit": "nM"}]}, {"compound": "COc1nc(-c2cccc(-c3cccc4c3CC[C@@H]4Oc3nc(OC)c(CNC(C)(C)C(=O)O)cc3C)c2Cl)ccc1CNC[C@@H]1CCC(=O)N1", "note": "[B-245]", "values": [{"measurement": "AC50", "setting": "[1]", "result": 5.94, "unit": "nM"}, {"measurement": "IC50", "setting": "[2]", "result": 0.064, "unit": "nM"}]}, {"compound": "COc1nc(-c2cccc(-c3cccc4c3CC[C@@H]4Oc3nc(OC)c(CNC4(C(=O)O)CC4)cc3C)c2Cl)ccc1CNC[C@@H]1CCC(=O)N1", "note": "[B-246]", "values": [{"measurement": "AC50", "setting": "[1]", "result": 14, "unit": "nM"}, {"measurement": "IC50", "setting": "[2]", "result": 0.064, "unit": "nM"}]}, {"compound": "COc1nc(-c2cccc(-c3cccc4c3CC[C@@H]4Oc3nc(OC)c(CNC4(C(=O)O)CC4)nc3C(F)(F)F)c2Cl)ccc1CNC[C@@H]1CCC(=O)N1", "note": "[B-247]", "values": [{"measurement": "AC50", "setting": "[1]", "result": 10.4, "unit": "nM"}, {"measurement": "IC50", "setting": "[2]", "result": 0.064, "unit": "nM"}]}, {"compound": "COc1nc(-c2cccc(-c3cccc4c3CC[C@@H]4Oc3nc(OC)c(CNCC(=O)N(C)C)cc3C(F)(F)F)c2Cl)ccc1CNC[C@@H]1CCC(=O)N1", "note": "[B-248]", "values": [{"measurement": "AC50", "setting": "[1]", "result": 15.9, "unit": "nM"}, {"measurement": "IC50", "setting": "[2]", "result": 0.097, "unit": "nM"}]}, {"compound": "CNC(=O)[C@H](C)NCc1cc(C(F)(F)F)c(O[C@H]2CCc3c(-c4cccc(-c5ccc(CNC[C@@H]6CCC(=O)N6)c(OC)n5)c4Cl)cccc32)nc1OC", "note": "[B-249]", "values": [{"measurement": "AC50", "setting": "[1]", "result": 35.5, "unit": "nM"}, {"measurement": "IC50", "setting": "[2]", "result": 0.065, "unit": "nM"}]}, {"compound": "CNC(=O)CNCc1cc(C(F)(F)F)c(O[C@H]2CCc3c(-c4cccc(-c5ccc(CNC[C@@H]6CCC(=O)N6)c(OC)n5)c4Cl)cccc32)nc1OC", "note": "[B-250]", "values": [{"measurement": "AC50", "setting": "[1]", "result": 36.4, "unit": "nM"}, {"measurement": "IC50", "setting": "[2]", "result": 0.237, "unit": "nM"}]}, {"compound": "COc1nc(-c2cccc(-c3cccc4c3CC[C@@H]4Oc3nc(OC)c(CNCC4(C(=O)O)CC4)cc3C(F)(F)F)c2Cl)ccc1CN[C@H]1C[C@](C)(O)C1", "note": "[B-251]", "values": [{"measurement": "AC50", "setting": "[1]", "result": 17.7, "unit": "nM"}, {"measurement": "IC50", "setting": "[2]", "result": 0.064, "unit": "nM"}]}, {"compound": "COc1nc(-c2cccc(-c3cccc4c3CC[C@@H]4Oc3nc(OC)c(CNCC(C)(C)C(=O)O)cc3C(F)(F)F)c2Cl)ccc1CN[C@H]1C[C@](C)(O)C1", "note": "[B-252]", "values": [{"measurement": "AC50", "setting": "[1]", "result": 18, "unit": "nM"}, {"measurement": "IC50", "setting": "[2]", "result": 0.064, "unit": "nM"}]}, {"compound": "COc1nc(-c2cccc(-c3cccc4c3CC[C@@H]4Oc3nc(OC)c(CN[C@H](C)CC(=O)O)cc3C(F)(F)F)c2Cl)ccc1CN[C@H]1C[C@](C)(O)C1", "note": "[B-253]", "values": [{"measurement": "AC50", "setting": "[1]", "result": 8.73, "unit": "nM"}, {"measurement": "IC50", "setting": "[2]", "result": 0.064, "unit": "nM"}]}, {"compound": "COc1nc(-c2cccc(-c3cccc4c3CC[C@@H]4Oc3nc(OC)c(CNCCC(=O)O)cc3C(F)(F)F)c2Cl)ccc1CN[C@H]1C[C@](C)(O)C1", "note": "[B-254]", "values": [{"measurement": "AC50", "setting": "[1]", "result": 11.4, "unit": "nM"}, {"measurement": "IC50", "setting": "[2]", "result": 0.064, "unit": "nM"}]}, {"compound": "COc1nc(-c2cccc(-c3cccc4c3CC[C@@H]4Oc3nc(OC)c(CN[C@H](C(=O)O)C4CC4)cc3C(F)(F)F)c2Cl)ccc1CN[C@H]1C[C@](C)(O)C1", "note": "[B-255]", "values": [{"measurement": "AC50", "setting": "[1]", "result": 7.89, "unit": "nM"}, {"measurement": "IC50", "setting": "[2]", "result": 0.064, "unit": "nM"}]}, {"compound": "COC[C@H](NCc1cc(C(F)(F)F)c(O[C@H]2CCc3c(-c4cccc(-c5ccc(CN[C@H]6C[C@](C)(O)C6)c(OC)n5)c4Cl)cccc32)nc1OC)C(=O)O", "note": "[B-256]", "values": [{"measurement": "AC50", "setting": "[1]", "result": 13.1, "unit": "nM"}, {"measurement": "IC50", "setting": "[2]", "result": 0.064, "unit": "nM"}]}, {"compound": "COc1nc(-c2cccc(-c3cccc4c3CC[C@@H]4Oc3nc(OC)c(CN(C)[C@@H](C)C(=O)O)cc3C(F)(F)F)c2Cl)ccc1CNC[C@@H]1CCC(=O)N1", "note": "[B-257]", "values": [{"measurement": "AC50", "setting": "[1]", "result": 8.73, "unit": "nM"}, {"measurement": "IC50", "setting": "[2]", "result": 0.064, "unit": "nM"}]}, {"compound": "COc1nc(-c2cccc(-c3cccc4c3CC[C@@H]4Oc3nc(OC)c(CN(C)CC(=O)O)cc3C(F)(F)F)c2Cl)ccc1CNC[C@@H]1CCC(=O)N1", "note": "[B-258]", "values": [{"measurement": "AC50", "setting": "[1]", "result": 5.9, "unit": "nM"}, {"measurement": "IC50", "setting": "[2]", "result": 0.064, "unit": "nM"}]}, {"compound": "COc1nc(-c2cccc(-c3cccc4c3CC[C@@H]4Oc3nc(OC)c(CN4CC(C)(O)C4)cc3C(F)(F)F)c2Cl)ccc1CNC[C@@H]1CCC(=O)N1", "note": "[B-260]", "values": [{"measurement": "AC50", "setting": "[1]", "result": 18, "unit": "nM"}, {"measurement": "IC50", "setting": "[2]", "result": 0.064, "unit": "nM"}]}]}
